Reference: PMC3164320 (Journal of medicinal chemistry, 2011)

System: HIV-1LAI
Assay: Antiviral MTT assay in MT-2 cells exposed to HIV-1LAI
Type: cell-based

Row | SMILES | fold loss of antiviral activity compared to 22 [fold]
1 | CC(C)CN(C[C@@H](O)[C@H](Cc1ccccc1)NC(=O)O[C@@H]1C[C@@H]2[C@H](O)CO[C@@H]2C1)S(=O)(=O)c1ccc(N)cc1 [Inhibitor 23, (3S,3aR,5R,6aR)-3-Hydroxyhexahydro-2H-cyclopenta[b]furan-5-yl [(2S,3R)-4-(4-Amino-N-isobutylphenylsulfonamido)-3-hydroxy-1-phenylbutan-2-yl]carbamate] | 3
2 | COc1ccc(S(=O)(=O)N(CC(C)C)C[C@@H](O)[C@H](Cc2ccccc2)NC(=O)O[C@@H]2C[C@@H]3[C@H](OC)CO[C@@H]3C2)cc1 [Inhibitor 25, (3S,3aS,5R,6aR)-3-Methoxyhexahydro-2H-cyclopenta[b]furan-5-yl [(2S,3R)-3-Hydroxy-4-(N-iso-butyl-4-methoxyphenylsulfonamido)-1-phenylbutan-2-yl]carbamate] | ~5
